Experimental data reported in patent US12139542B2, “Inhibitors of aortic carboxypeptidase-like protein (ACLP)” (TRUSTEES OF BOSTON UNIVERSITY, priority 2014, dated 2024).

Tested on: ACLP
Experiment: siRNA knockdown of ACLP in differentiating primary lung fibroblasts (Western blot)
Type: cell-based, mouse
Conditions: primary lung fibroblasts transfected day 1 post-isolation, 2 nM siRNA, vs NTC siRNA
Method: siRNA. Differentiating primary lung fibroblasts were transfected with 2 nM small interfering RNA (siRNA) targeting ACLP (Dharmacon) ([…]) (SEQ ID NO: 5) on either day 1 or day 2 post-isolation. Fully differentiated primary lung myofibroblasts were transfected at passage 2 or 3 with 2 nM siRNA targeting ACLP. Non-targeting control (NTC) siRNA ([…], […], […], […]) (SEQ ID NO: 6) was used as a control in all experiments. Transfections were performed using RNAiMAX (Invitrogen) according to manufacturer's instructions.
Knockdown of ACLP slows and partially reverts the fibroblast to myofibroblast transition. To determine if ACLP was required for fibroblast to myofibroblast differentiation, siRNA was used to knockdown ACLP expression during myofibroblast differentiation. Freshly isolated wildtype primary lung fibroblasts were transfected on day 1 post-isolation with siRNA targeting ACLP (FIG. 2B) (3).

## GGCUCAAGAUCUACGCAAU (listed as RNA, chemistry not given here) [ACLP siRNA, small interfering RNA targeting mouse ACLP (Dharmacon)]
  reduction in ACLP protein expression: 68%
  reduction of Collagen I levels: 5%
Statistically significant
  reduction in SMA protein expression: 63%
